Results from EP3727588B1, “ACTIVATOR PEPTIDES OF THE ENZYME ADAM 10 AND RELATED USES IN THE TREATMENT OF ALZHEIMER'S DISEASE” (UNIVERSITA' DEGLI STUDI DI MILANO, priority 2017, dated 2019).
“And” between values parts separate entries of the source, which are not always exact repeats. Equal values may be shown once. Peptide text beside a SMILES is read from it.

Legend:
[1] = Novel Object Recognition Test (NORT), C57BL/6 mice; assay type: in vivo; conditions: 14 days' treatment
Procedure: (§1) C57/BL6 adult mice were treated for 14 days with daily intraperitoneal injection of saline solution or peptides at a dose of 3 nmol/g (6-10 animals per experimental group). The animals were maintained in an enclosure at 25 ± 2 °C with an alternating light/dark cycle of 12 hours and had free access to water and food in the form of pellets (standard diet).
After 14 days of treatment the animals were subjected to the Novel Object Recognition Test (NORT). Such test is structured in three phases: habituation, familiarization and testing. In the first phase, the animal is placed in an empty arena and left free to explore the environment for 5 minutes. The day after, during the familiarization phase, the animal is placed in the same arena in the presence of two objects, identical in shape and size, for 10 minutes. Then the time spent by the animal exploring the individual object is recorded. On the third day, the animal is placed in the area in the presence of an identical object to that used in the familiarization phase and a new one. In this phase the difference in time spent by the animal exploring the familiar object and the new object is evaluated. […] In both phases of the test, the objects are positioned symmetrically and opposite inside the arena, and all the sessions are recorded with the aid of a video camera. […]

[2] = body weight and food intake during 14 days' treatment; assay type: in vivo; conditions: C57BL/6 mice, daily intraperitoneal 3 nmol/g
Procedure: as §1
For the entire duration of the treatment, on a daily basis, the weight and food intake of each animal were monitored and recorded, in order to evaluate any changes caused by the treatment. 24 hours after the last injection the mice were anaesthetized, and then the blood was taken through cardiac puncture, whereas the brain and liver of the animal were rapidly dissected to perform biochemical or immunohistological analyses.
The body weight and food intake were monitored and recorded on a daily basis.

[3] = leukogram (white blood cell count) after 14 days' treatment; assay type: in vivo, mice
Procedure: as §1
(§2) The blood, collected through cardiac puncture, was analysed with a laser counter (ADVIA 120, Siemens) using specific software for the murine species. From each sample a blood smear was prepared, stained with the May Grünwald-Giemsa method, and used for the morphological analysis of the leukocytes, the red blood cells and the platelet estimate. After the automatic counting of the cells and the preparation of the smear, all the samples were centrifuged and the plasma was transferred into separate test tubes. The analysis of the plasma samples was performed through automatic spectrophotometer (ILAB-300, Instrumentation Laboratory). All the results were compared with the values provided by the company Charles River for mice of the same strain and age.
Except for the basophils and eosinophils, the total count and white blood cell (WBC) differential is lower with respect to the range values in all the animals treated. However, we noticed that the reference range values provided by the company Charles River are particularly high with respect to other values provided for other control groups and in other scientific articles in which the same animal strain is analysed. Justification for these differences found is provided by the pre-analytical factors used by Charles River in determining the different reference ranges (such as the method used, the type of sampling used, etc.). Despite this, the analyses of the data performed both individually and by examining the mean and median values in the different groups, show some differences in the values referring to mice treated with the active peptide with respect to the control mice (Table 2).
The following Table 2 illustrates the results of the white blood cell count. The reference values are provided by Charles River for C57BL mice of 56-70 days.

[4] = test system: dendritic spines of the hippocampal neurons; experiment: dendritic spine morphology and density in hippocampus, C57BL/6 mice; assay type: in vivo; conditions: 14 days' treatment
Procedure: as §1
For the dendritic spine analysis, the protocol used is the one previously described by Kim et al, and envisages the use of DilDye lipophilic tracer (Invitrogen) to allow the dendritic spines to be viewed under the confocal microscope. The analysis of the dimensions and morphology of the spines was performed with ImageJ software.
The spines were classified, based on their morphology, into three different categories: thin, stubby (without a well-defined "neck") and mushroom shaped. To evaluate the possible effect induced by PEP3 on the spine morphology, two animals for each experimental group were perfused after 14 days of treatment and the brain was post-fixed in PFA and cut with a vibratome. To view the dendritic spines the lipophilic tracer DilDye was used. From the images acquired from the confocal microscope the number, length and width of the head of the dendritic spines of the hippocampal neurons were measured.

[5] = test system: GFAP and Iba-1 positive cells; experiment: neuro-inflammation: GFAP and Iba-1 positive cells in hippocampus; assay type: in vivo, mice; conditions: 5 fields, 14 days' treatment
Procedure: as §1
After the sacrifice of the treated animal, a portion of liver and a brain hemisphere were fixed in 10% formalin for 48 hours, and included in paraffin. From each block of paraffin, serial sections 5/6µm thick were obtained. The sections were then stained with haematoxylin-eosin or processed through immunohistochemistry.
Subsequently, to evaluate the presence of neuro-inflammation, 5 different fields of the hippocampus were considered to verify any presence of GFAP and Iba-1 positive cells.

[6] = blood count and platelet count after 14 days' treatment; assay type: in vivo, mice; set-up: key to Aggregate s: +, ++, +++ considering the presence of platelet aggregates detected in the blood smear that make the analysis difficult; +, ++, +++ considering the presence of platelet aggregates detected in the blood smear that make the analysis difficult; +, ++, +++ considering the presence of platelet aggregates detected in the blood smear that make the analysis difficult; key to Estimate Plt: A= appropriate platelet estimate
Procedure: as §1, §2
The range values are provided by Charles River for C57BL mice aged between 56-70 days, whose blood was collected by cardiac puncture after euthanasia.

[7] = individual animal, 14 days, daily intraperitoneal 3 nmol/g

N=C(N)NCCC[C@H](NC(=O)CNC(=O)[C@@H](N)Cc1ccc(O)cc1)C(=O)N[C@@H](CCCCN)C(=O)N[C@@H](CCCCN)C(=O)N[C@@H](CCCNC(=N)N)C(=O)N[C@@H](CCCNC(=N)N)C(=O)N[C@@H](CCC(N)=O)C(=O)N[C@@H](CCCNC(=N)N)C(=O)N[C@@H](CCCNC(=N)N)C(=O)N[C@@H](CCCNC(=N)N)C(=O)NCC(=O)NCC(=O)N[C@@H](CO)C(=O)NCC(=O)N[C@@H](CCC(N)=O)C(=O)N1CCC[C@H]1C(=O)N1CCC[C@H]1C(=O)N[C@@H](CCC(=O)O)C(=O)N[C@@H](CCC(N)=O)C(=O)N[C@@H](CCC(=O)O)C(=O)N1CCC[C@H]1C(=O)N[C@@H](CCCNC(=N)N)C(=O)NCC(=O)O [inPEP3, reference compound] (H-YGRKKRRQRRRGGSGQPPEQEPRG-OH)
time exploring the new object [1]: 59.24 ± 4.58%
food intake (ratio daily food intake / mean body weight) [2]: 99.03±2.03%
Basophils ([3]; group mean): 0 µL⁻¹
Eosinophils ([3]; group mean): 39.9 µL⁻¹
Lymphocytes ([3]; group mean): 1935.9 µL⁻¹
Monocytes ([3]; group mean): 137.1 µL⁻¹
Neutrophils ([3]; group mean): 990.5 µL⁻¹
White blood cells ([3]; group mean): 3103.3 µL⁻¹
Basophils ([3]; group median): 0 µL⁻¹
Eosinophils ([3]; group median): (-0.0378). x10^3/µL
Lymphocytes ([3]; group median): (-1.837). x10^3/µL
Monocytes ([3]; group median): (-0.0918). x10^3/µL
Neutrophils ([3]; group median): (-0.2468). x10^3/µL
White blood cells ([3]; group median): (-2.295). x10^3/µL
Basophils [3, 7]: 0 µL⁻¹
Eosinophils [3, 7]: 26.1 µL⁻¹ and 31 µL⁻¹ and 44.8 µL⁻¹ and 62 µL⁻¹ and 36 µL⁻¹ and 39.6 µL⁻¹
Lymphocytes [3, 7]: 2218.5 µL⁻¹ and 1271 µL⁻¹ and 1971.2 µL⁻¹ and 2976 µL⁻¹ and 1476 µL⁻¹ and 1702.8 µL⁻¹
Monocytes [3, 7]: 104.4 µL⁻¹ and 15.5 µL⁻¹ and 179.2 µL⁻¹ and 372 µL⁻¹ and 72 µL⁻¹ and 79.2 µL⁻¹
Neutrophils [3, 7]: 261 µL⁻¹ and 232.5 µL⁻¹ and 2284.8 µL⁻¹ and 2790 µL⁻¹ and 216 µL⁻¹ and 158.4 µL⁻¹
White blood cells [3, 7]: 2610 µL⁻¹ and 1550 µL⁻¹ and 4480 µL⁻¹ and 6200 µL⁻¹ and 1800 µL⁻¹ and 1980 µL⁻¹
density of the dendritic spines [4]: 10.15±1.05 n. of spines/10µm
length of mushroom shaped spines [4]: 0.85±0.04
length of the spines [4]: 0.83±0.02 µm
percentage of mushroom shaped spines [4]: 30.81 ± 1.78%
percentage of stubby spines [4]: 42.78 ± 1.86%
percentage of thin spines [4]: 26.41 ± 1.42%
width of the head of spines [4]: 0.79±0.02 µm
number of GFAP positive cells [5]: 31.67±1.12
number of Iba-1 positive cells [5]: 8.50±0.43
(Ht) ([6]; group mean): 48.6%
Hb ([6]; group mean): 12.3 g/dL
Mean Corpuscula r Hb (MCH) ([6]; group mean): 13.4 pg
Mean Corpuscula r Hb Conc. MCHC ([6]; group mean): 25.3%
Platelet count ([6]; group mean): 661000 µL⁻¹
Red blood cells ([6]; group mean): 9.16e+06 µL⁻¹
Red cell distribution width (RDW) ([6]; group mean): 20.7%
Vol. Mean Corp. Vol. (MCV) ([6]; group mean): 53.1 fL
(Ht) ([6]; group median): -48.4%
Hb ([6]; group median): -12.3 g/dL
Platelet count ([6]; group median): -659000 µL⁻¹
Red blood cells ([6]; group median): -9.13e+06 µL⁻¹
Red cell distribution width (RDW) ([6]; group median): -20.5%
Vol. Mean Corp. Vol. (MCV) ([6]; group median): -53.1 fL
Estimate Plt ([6]; individual animal, blood smear, first part of cell): A
Aggregate s ([6]; individual animal, blood smear, second part of cell): +++
(Ht) [6, 7]: 50.1% and 49.5% and 47.8% and 48.7% and 48% and 47.3%
Hb [6, 7]: 12.6 g/dL (2×) and 12 g/dL (2×) and 12.4 g/dL and 12.1 g/dL
Mean Corpuscula r Hb (MCH) [6, 7]: 13.5 Pg (3×) and 13.3 Pg and 13.4 Pg (2×)
Mean Corpuscula r Hb Conc. MCHC [6, 7]: 25.1% (2×) and 25.5% (2×) and 25.2% and 25.4%
Platelet count [6, 7]: 522000 µL⁻¹ and 661000 µL⁻¹ and 656000 µL⁻¹ and 341000 µL⁻¹ and 998000 µL⁻¹ and 790000 µL⁻¹
Red blood cells [6, 7]: 9.36e+06 µL⁻¹ and 9.34e+06 µL⁻¹ and 9.01e+06 µL⁻¹ and 9.21e+06 µL⁻¹ and 9.04e+06 µL⁻¹ and 8.97e+06 µL⁻¹
Red cell distribution width (RDW) [6, 7]: 20.4% and 20.6% and 21.4% and 21.8% and 19.6% and 20.1%
Vol. Mean Corp. Vol. (MCV) [6, 7]: 53.5 fL and 53 fL and 53.1 fL (2×) and 52.9 fL and 52.7 fL
